Assay results from the supplement of paper PMC8671470.

Key:
Details in all cases: 72 h
[1] = system: HL-60; assay: cell viability (% survival relative to DMSO control); higher = less cytotoxic
How it was run: (§1)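 HL-60 cells in RPMI 1640 with 10% FBS were rescreened against the full library on 384-well plates at five tenfold concentrations, 1–10,000 nM, in duplicate. Each screen was run with DMSO or 100 nM of one of three metabolic inhibitors, for 72 h at 37 °C, 5% CO2. Viability was read by CellTiter-Glo and normalised to DMSO and 10 μM proteasome-inhibitor wells. Where given, area under the curve came from four-parameter log-logistic fits (drc, PharmacoGx).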

[2] = system: myeloid leukemia patient primary cells Pat.12; assay: area under dose-response curve (viability, 1 nM-10 uM) (fraction (0-1)); higher = more sensitive
Method: (§2)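 AUC (0–1, higher = more sensitive) of the 5-point dose–response (1 nM–10 µM, 72 h, CellTiter-Glo) in primary AML/CML patient mononuclear cells. 0.030103 is the floor for inactive compounds.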

[3] = system: myeloid leukemia patient primary cells Pat.4; assay: as above
Method: as §2

[4] = system: myeloid leukemia patient primary cells Pat.3; assay: as above
Method: as §2

[5] = system: myeloid leukemia patient primary cells Pat.1; assay: as above
Method: as §2

[6] = system: myeloid leukemia patient primary cells Pat.13; assay: as above
Method: as §2

[7] = system: myeloid leukemia patient primary cells Pat.2; assay: as above
Method: as §2

[8] = system: myeloid leukemia patient primary cells Pat.15; assay: as above
Method: as §2

[9] = system: myeloid leukemia patient primary cells Pat.14; assay: as above
Method: as §2

[10] = system: myeloid leukemia patient primary cells Pat.8; assay: as above
Method: as §2

[11] = system: myeloid leukemia patient primary cells Pat.7; assay: as above
Method: as §2

[12] = system: myeloid leukemia patient primary cells Pat.11; assay: as above
Method: as §2

[13] = system: myeloid leukemia patient primary cells Pat.10; assay: as above
Method: as §2

[14] = system: myeloid leukemia patient primary cells Pat.6; assay: as above
Method: as §2

[15] = system: myeloid leukemia patient primary cells Pat.5; assay: as above
Method: as §2

[16] = system: myeloid leukemia patient primary cells Pat.9; assay: as above
Method: as §2

[17] = system: HL-60; assay: area under dose-response curve (viability, 1 nM-10 uM) (fraction (0-1)); higher = more sensitive
How it was run: as §1

[18] = system: myeloid leukemia patient primary cells Pat.2; assay: cell viability (% survival relative to DMSO control); higher = less cytotoxic
How it was run: (§3)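 Mononuclear cells from patients with AML or CML were thawed, purified on Ficoll and placed in RPMI 1640 with 10% FBS at 10,000 cells/well on 384-well plates. The plates came pre-printed with 70 compounds at five tenfold concentrations spanning 1–10,000 nM, in duplicate, and cells were exposed for 72 h. CellTiter-Glo gave viability, scaled between DMSO wells and wells with 10 μM proteasome inhibitor. Where reported, area under the curve was obtained from log-logistic fits with four parameters using the drc and PharmacoGx R packages.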

[19] = system: myeloid leukemia patient primary cells Pat.15; assay: as above
How it was run: as §3

[20] = system: myeloid leukemia patient primary cells Pat.7; assay: as above
How it was run: as §3

[21] = system: myeloid leukemia patient primary cells Pat.11; assay: as above
How it was run: as §3

[22] = system: myeloid leukemia patient primary cells Pat.10; assay: as above
How it was run: as §3

[23] = system: myeloid leukemia patient primary cells Pat.6; assay: as above
How it was run: as §3

CC(=O)Nc1nc(C)c(-c2ccc(Cl)c(S(=O)(=O)NCCO)c2)s1 [PIK93]
cell viability [%], [1]
Details | 0.001 µM | 0.01 µM | 0.1 µM | 1 µM | 10 µM
co-treatment: AZD3965 100 nM | 102.8 | 103 | 100 | 77.3 | 13.3
co-treatment: DMSO vehicle | 98.3 | 101 | 99.6 | 85.1 | 23.5
co-treatment: GSK2194069 100 nM | 102 | 106 | 103 | 81.7 | 18.2
co-treatment: pictilisib 100 nM | 102 | 107 | 97 | 70.2 | 16.6

Details | area under dose-response curve
[2] | < 0.0301
[3] | 0.401
[4] | 0.545
[5] | 0.365
[6] | 0.214
[7] | 0.0748
[8] | 0.417
[9] | 0.139
[10] | 0.0853
[11] | 0.16
[12] | 0.204
[13] | 0.728
[14] | 0.0757
[15] | 0.907
[16] | 0.82

Details | area under dose-response curve, co-treatment: AZD3965 100 nM | area under dose-response curve, co-treatment: DMSO vehicle | area under dose-response curve, co-treatment: GSK2194069 100 nM | area under dose-response curve, co-treatment: pictilisib 100 nM | cell viability, 1 nM [%] | cell viability, 10 nM [%] | cell viability, 100 nM [%] | cell viability, 1000 nM [%] | cell viability, 10000 nM [%]
[17] | 0.172 | 0.135 | 0.154 | 0.181 | – | – | – | – | –
[18] | – | – | – | – | 94.4 | 44.8 | 95.8 | 65.5 | 47.8
[19] | – | – | – | – | 83.6 | 92.9 | 65.4 | 9.62 | 2.38
[20] | – | – | – | – | 61.6 | < 0 | 63.4 | 64.1 | 22
[21] | – | – | – | – | 96.6 | 85.4 | 88.7 | 54.6 | 32.4
[22] | – | – | – | – | 65.9 | 22.6 | 56.6 | 60.8 | 16.8
[23] | – | – | – | – | 91.8 | 35.2 | 87.8 | 72.1 | 40.8
